Reference: ChEMBL document CHEMBL4219154, “Design, synthesis, nuclear localization, and biological activity of a fluorescent duocarmycin analog, HxTfA” (Bioorg Med Chem Lett, 2018)
pIC50: −log10 of the molar value. Active and inactive are the calls of the source. The calls are words filed in the database; no cut-off is given here.

What was measured:
A549 [1] = test: Cytotoxicity against human A549 cells after 3 days by MTT assay; assay type: functional, cell-based; details: A549, 72 h
A549 [2] = test: Induction of apoptosis in human A549 cells assessed as decrease in survivin level at 0.1 uM incubated for 5 hrs followed by 24 hrs incubation in drug free medium by immunoblotting based confocal microscopy; assay type: functional, cell-based
B16 = test: Cytotoxicity against mouse B16 cells after 3 days by MTT assay; assay type: functional, cell-based; details: B16, 72 h
A549 [3] = test: Induction of apoptosis in human A549 cells assessed as increase in gamma-H2AX level at 0.1 to 5 uM incubated for 5 hrs followed by 24 hrs incubation in drug free medium by confocal microscopy; assay type: functional, cell-based
A549 [4] = test: Induction of apoptosis in human A549 cells assessed as decrease in Bcl-xL level at 0.05 to 20 uM incubated for 5 hrs followed by 24 hrs incubation in drug free medium by immunoblotting based confocal microscopy; assay type: functional, cell-based
Escherichia coli [5] = test: Alkylating activity at N3 position of 5'-AAAAA-3' (865) in Escherichia coli pUC18 DNA at 0.1 uM after 5 hrs by electrophoresis analysis; assay type: functional
Plasmodium falciparum = test: Antiplasmodial activity against Plasmodium falciparum 3D7 infected in red blood cells after 48 hrs; assay type: functional, organism-based; details: 3D7, 48 h
A549 [6] = test: Cytotoxicity against human A549 cells after 4 days by MTT assay; assay type: functional, cell-based; details: A549, 96 h
A549 [7] = test: Induction of apoptosis in human A549 cells assessed as increase in gamma-H2AX level at 0.1 to 10 uM incubated for 5 hrs followed by 24 hrs incubation in drug free medium by immunofluorescence assay; assay type: functional, cell-based
A549 [8] = test: Induction of apoptosis in human A549 cells assessed as increase in cleaved caspase 3 level at 1 uM incubated for 5 hrs followed by 24 hrs incubation in drug free medium by immunofluorescence assay; assay type: functional, cell-based
A549 [9] = test: Induction of apoptosis in human A549 cells assessed as decrease in survivin level at 1 to 20 uM incubated for 5 hrs followed by 24 hrs incubation in drug free medium by immunoblotting based confocal microscopy; assay type: functional, cell-based
A549 [10] = test: Induction of apoptosis in human A549 cells assessed as decrease in Bcl-xL level at 0.1 to 20 uM incubated for 5 hrs followed by 24 hrs incubation in drug free medium by immunoblotting based confocal microscopy; assay type: functional, cell-based
[11] = Drug uptake in nucleus of human A549 cells at 50 to 100 uM after 24 hrs by mitrotracker red CMXRos staining based fluorescence microscopy; assay type: ADME, subcellular; details: a549, 24 h
Escherichia coli [12] = test: Induction of DNA cleavage at AT-mixed sequence 5'-TTTTA-3'(843) in Escherichia coli pUC18 DNA at 0.1 to 30 uM after 5 hrs by electrophoresis analysis
Escherichia coli [13] = test: Alkylating activity at N3 position of 5'-AAAAA-3' (865) in Escherichia coli pUC18 DNA at 1 uM after 5 hrs by electrophoresis analysis; assay type: functional
[14] = Drug uptake in nucleus of human A549 cells at 1 uM after 24 hrs by propidium iodide staining based confocal microscopy; assay type: ADME, subcellular; details: a549, 24 h

With COc1cc2cc(C(=O)N3CC(CCl)c4c3cc(O)c3ccoc43)[nH]c2c(OC)c1OC (stereo not given) the pIC50 (A549 [1]) was 7.28, the Activity (A549 [2]) was “Active” and the pIC50 (B16) was 7.40. The Activity (A549 [3]) was “Active”, the Activity (A549 [4]) was “inactive” and the Activity (Escherichia coli [5]) was “Active”. For the same compound, the pIC50 (Plasmodium falciparum) was 10.19, the pIC50 (A549 [6]) was 8.43 and the Activity (A549 [7]) was “Active”.

For COc1ccc(-c2nc3ccc(C(=O)N4CC(CCl)c5c4cc(O)c4ccoc54)cc3[nH]2)cc1 (stereo not given), the Activity (A549 [8]) was “Active”, the Activity (A549 [9]) was “Active” and the Activity (A549 [10]) was “inactive”. For the same compound, the Activity (A549 [3]) was “Active”, the Drug uptake [11] was “Active” and the Activity (Escherichia coli [12]) was “Active”. For the same compound, the Activity (Escherichia coli [13]) was “Active”, the Drug uptake [14] was “Active” and the pIC50 (Plasmodium falciparum) was 8.43. The pIC50 (A549 [6]) was 7.59 and the Activity (A549 [7]) was “Active”.
